The source of these data is publication PMC5218480 (PLoS ONE, 2017).

The assay relates to MV-4-11 cells. Nature of the assay: Gene expression microarray analysis (Affymetrix PrimeView) and GSEA. The following applies: MV-4-11 cells, 48 hours. It counts as cell-based, human. Details: RFU PODN (11730768_x_at) / Fold change /veh PODN (11730768_x_at) / RFU LINC00158 (11744669_a_at) / Fold change /veh LINC00158 (11744669_a_at) / RFU DUSP10 (11751237_a_at) / Fold change /veh DUSP10 (11751237_a_at) / RFU ID3 (11757404_x_at) / Fold change /veh ID3 (11757404_x_at) / RFU PLEKHG5 (11737974_s_at) / Fold change /veh PLEKHG5 (11737974_s_at) / RFU LRRC4B (11730491_at) / Fold change /veh LRRC4B (11730491_at) / RFU GIMAP4 (11747438_a_at) / Fold change /veh GIMAP4 (11747438_a_at) / RFU KRT8 (11758183_x_at) / Fold change /veh KRT8 (11758183_x_at) / RFU CNN1 (11734310_a_at) / Fold change /veh CNN1 (11734310_a_at) / RFU VPS37D (11726825_at) / Fold change /veh VPS37D (11726825_at) / RFU C10orf10 (11716522_x_at) / Fold change /veh C10orf10 (11716522_x_at) / RFU KIR2DL2 /// KIR2DL4 /// KIR2DL5A /// KIR2DL5B /// KIR2DS1 /// KIR2DS2 /// KIR2DS3 /// KIR2DS4 /// KIR3DL3 /// KIR3DL3 /// KIR3DS1 (11738374_at) / Fold change /veh KIR2DL2 /// KIR2DL4 /// KIR2DL5A /// KIR2DL5B /// KIR2DS1 /// KIR2DS2 /// KIR2DS3 /// KIR2DS4 /// KIR3DL3 /// KIR3DL3 /// KIR3DS1 (11738374_at) / RFU C1QL1 (11718748_at) / Fold change /veh C1QL1 (11718748_at) / RFU TMPRSS4 (11747572_a_at) / Fold change /veh TMPRSS4 (11747572_a_at) / RFU HAMP (11756126_x_at) / Fold change /veh HAMP (11756126_x_at) / RFU RNFT2 (11725882_a_at) / Fold change /veh RNFT2 (11725882_a_at) / RFU NR4A2 (11747474_a_at) / Fold change /veh NR4A2 (11747474_a_at) / RFU ABCC12 (11746883_a_at) / Fold change /veh ABCC12 (11746883_a_at) / RFU TMEM136 (11760407_x_at) / Fold change /veh TMEM136 (11760407_x_at) / RFU CLDN22 /// WWC2 (11732394_at) / Fold change /veh CLDN22 /// WWC2 (11732394_at) / RFU HLA-DPB1 (11760878_x_at) / Fold change /veh HLA-DPB1 (11760878_x_at) / RFU SPINT1 (11716480_a_at) / Fold change /veh SPINT1 (11716480_a_at) / RFU GAP43 (11754022_s_at) / Fold change /veh GAP43 (11754022_s_at) / RFU A4GNT (11735810_at) / Fold change /veh A4GNT (11735810_at) / RFU PRB3 (11715151_x_at) / Fold change /veh PRB3 (11715151_x_at) / RFU TUBB4B (11761932_at) / Fold change /veh TUBB4B (11761932_at) / RFU CAPN14 (11732068_a_at) / Fold change /veh CAPN14 (11732068_a_at) / RFU TMCC2 (11721928_a_at) / Fold change /veh TMCC2 (11721928_a_at) / RFU IRGQ (11745062_a_at) / Fold change /veh IRGQ (11745062_a_at) / RFU FAM174B (11720279_a_at) / Fold change /veh FAM174B (11720279_a_at) / RFU TMPRSS4 (11748680_a_at) / Fold change /veh TMPRSS4 (11748680_a_at) / RFU FAM212B (11763350_a_at) / Fold change /veh FAM212B (11763350_a_at) / RFU PLEKHG5 (11743358_a_at) / Fold change /veh PLEKHG5 (11743358_a_at) / RFU ZSCAN30 (11745921_a_at) / Fold change /veh ZSCAN30 (11745921_a_at) / RFU CMKLR1 (11741424_a_at) / Fold change /veh CMKLR1 (11741424_a_at) / RFU LOC101060620 /// MAPK8IP1 (11723275_at) / Fold change /veh LOC101060620 /// MAPK8IP1 (11723275_at) / RFU SPTSSB (11747773_x_at) / Fold change /veh SPTSSB (11747773_x_at) / RFU PRSS12 (11739890_at) / Fold change /veh PRSS12 (11739890_at) / RFU BIN1 (11741810_x_at) / Fold change /veh BIN1 (11741810_x_at) / RFU WNT11 (11732464_a_at) / Fold change /veh WNT11 (11732464_a_at) / RFU C10orf10 (11716521_a_at) / Fold change /veh C10orf10 (11716521_a_at) / RFU C5orf56 (11738089_at) / Fold change /veh C5orf56 (11738089_at) / RFU CYB561 (11721691_x_at) / Fold change /veh CYB561 (11721691_x_at) / RFU ANKRD19P (11752326_a_at) / Fold change /veh ANKRD19P (11752326_a_at) / RFU OR2T12 /// OR2T33 /// OR2T8 (11738714_s_at) / Fold change /veh OR2T12 /// OR2T33 /// OR2T8 (11738714_s_at) / RFU VCAN (11748164_a_at) / Fold change /veh VCAN (11748164_a_at) / RFU JSRP1 (11732532_at) / Fold change /veh JSRP1 (11732532_at) / RFU KRTAP10-11 (11738290_x_at) / Fold change /veh KRTAP10-11 (11738290_x_at) / RFU MYO3A (11730013_a_at) / Fold change /veh MYO3A (11730013_a_at) / RFU EBF3 (11725865_a_at) / Fold change /veh EBF3 (11725865_a_at) / RFU CAMK2N1 (11719241_x_at) / Fold change /veh CAMK2N1 (11719241_x_at) / RFU C5orf56 (11738088_a_at) / Fold change /veh C5orf56 (11738088_a_at) / RFU OLFML3 (11715873_a_at) / Fold change /veh OLFML3 (11715873_a_at) / RFU LOC100653217 /// NTM (11731650_a_at) / Fold change /veh LOC100653217 /// NTM (11731650_a_at) / RFU MAPK11 (11762145_a_at) / Fold change /veh MAPK11 (11762145_a_at) / RFU FIZ1 (11724087_x_at) / Fold change /veh FIZ1 (11724087_x_at) / RFU OASL (11726364_x_at) / Fold change /veh OASL (11726364_x_at) / RFU SOX15 (11748057_x_at) / Fold change /veh SOX15 (11748057_x_at) / RFU CD79A (11719716_a_at) / Fold change /veh CD79A (11719716_a_at) / RFU HIST1H1D (11736915_at) / Fold change /veh HIST1H1D (11736915_at) / RFU CASKIN2 (11723855_a_at) / Fold change /veh CASKIN2 (11723855_a_at) / RFU LOC730098 (11760151_x_at) / Fold change /veh LOC730098 (11760151_x_at) / RFU OR4N2 (11742367_at) / Fold change /veh OR4N2 (11742367_at) / RFU PRRT2 (11749266_a_at) / Fold change /veh PRRT2 (11749266_a_at) / RFU SNX32 (11753110_a_at) / Fold change /veh SNX32 (11753110_a_at) / RFU CDHR5 (11726645_a_at) / Fold change /veh CDHR5 (11726645_a_at) / RFU RCAN1 (11760418_a_at) / Fold change /veh RCAN1 (11760418_a_at) / RFU FAM167A (11723789_a_at) / Fold change /veh FAM167A (11723789_a_at) / RFU FAM26E (11764081_at) / Fold change /veh FAM26E (11764081_at) / RFU ISYNA1 (11749810_s_at) / Fold change /veh ISYNA1 (11749810_s_at) / RFU ACY1 (11761880_at) / Fold change /veh ACY1 (11761880_at) / RFU 11764098_at / Fold change /veh 11764098_at / RFU SAMD14 (11745864_x_at) / Fold change /veh SAMD14 (11745864_x_at) / RFU NPB (11741838_a_at) / Fold change /veh NPB (11741838_a_at) / RFU TMPRSS6 (11731388_a_at) / Fold change /veh TMPRSS6 (11731388_a_at) / RFU KRTAP10-2 (11738614_at) / Fold change /veh KRTAP10-2 (11738614_at) / RFU ARHGAP8 /// PRR5-ARHGAP8 (11727945_x_at) / Fold change /veh ARHGAP8 /// PRR5-ARHGAP8 (11727945_x_at) / RFU KRTAP5-7 /// NADSYN1 (11734609_at) / Fold change /veh KRTAP5-7 /// NADSYN1 (11734609_at) / RFU RASL12 (11751679_a_at) / Fold change /veh RASL12 (11751679_a_at) / RFU CDKN2B (11736163_a_at) / Fold change /veh CDKN2B (11736163_a_at) / RFU PRF1 (11729649_at) / Fold change /veh PRF1 (11729649_at) / RFU, ZNF638 /// ZNF638-IT1 / Fold change vs veh, ZNF638 /// ZNF638-IT1 / RFU, PANK3 / Fold change vs veh, PANK3 / RFU, SH3YL1 / Fold change vs veh, SH3YL1 / RFU, ZEB2 / Fold change vs veh, ZEB2 / RFU, NRIP1 / Fold change vs veh, NRIP1 / RFU, PTTG1IP / Fold change vs veh, PTTG1IP / RFU, CAPN2 / Fold change vs veh, CAPN2 / RFU, MED14 / Fold change vs veh, MED14 / RFU, SNORA58 / Fold change vs veh, SNORA58 / RFU, C1orf63 / Fold change vs veh, C1orf63 / RFU, LRRFIP1 / Fold change vs veh, LRRFIP1 / RFU, NDUFAF7 / Fold change vs veh, NDUFAF7 / RFU, SLC12A2 / Fold change vs veh, SLC12A2 / RFU, IBTK / Fold change vs veh, IBTK / RFU, ESF1 / Fold change vs veh, ESF1 / Fold change vs veh, TMEM50B / RFU, TAOK1 / Fold change vs veh, TAOK1 / RFU, ACBD3 / Fold change vs veh, ACBD3 / RFU, TMA16 / Fold change vs veh, TMA16 / RFU, RWDD3 / Fold change vs veh, RWDD3 / RFU, BCAT1 / Fold change vs veh, BCAT1 / RFU, EDEM3 / Fold change vs veh, EDEM3 / RFU, TMEM33 / Fold change vs veh, TMEM33 / RFU, WDR75 / Fold change vs veh, WDR75 / RFU, AHCTF1 / Fold change vs veh, AHCTF1 / RFU, TFRC / Fold change vs veh, TFRC / RFU, ZDHHC17 / Fold change vs veh, ZDHHC17 / RFU, NOM1 / Fold change vs veh, NOM1 / RFU, ARL8B / Fold change vs veh, ARL8B / RFU, ZBTB11 / Fold change vs veh, ZBTB11 / RFU, TAMM41 / Fold change vs veh, TAMM41 / RFU, KIAA1704 /// LOC100996395 / Fold change vs veh, KIAA1704 /// LOC100996395 / RFU, ING1 / Fold change vs veh, ING1 / RFU, TRMT61B / Fold change vs veh, TRMT61B / RFU, FUBP3 / Fold change vs veh, FUBP3 / RFU, TP53 / Fold change vs veh, TP53 / RFU, TNKS2 / Fold change vs veh, TNKS2 / RFU, ZFP14 / Fold change vs veh, ZFP14 / RFU, ACTR2 / Fold change vs veh, ACTR2 / RFU, PPP3R1 / Fold change vs veh, PPP3R1 / RFU, PIK3R1 / Fold change vs veh, PIK3R1 / RFU, HNRNPA1 / Fold change vs veh, HNRNPA1 / RFU, RNF170 / Fold change vs veh, RNF170 / RFU, ZNF28 / Fold change vs veh, ZNF28 / RFU, RNGTT / Fold change vs veh, RNGTT / RFU, OGT / Fold change vs veh, OGT / RFU, BRD1 / Fold change vs veh, BRD1 / RFU, MARS / Fold change vs veh, MARS / RFU, ZNF655 / Fold change vs veh, ZNF655 / RFU, FAHD1 / Fold change vs veh, FAHD1 / RFU, BDP1 / Fold change vs veh, BDP1 / RFU, LRRCC1 / Fold change vs veh, LRRCC1 / RFU, ARID1A / Fold change vs veh, ARID1A / RFU, ZNF146 / Fold change vs veh, ZNF146 / RFU, ZNF330 / Fold change vs veh, ZNF330 / RFU, GPN3 / Fold change vs veh, GPN3 / RFU, C9orf123 / Fold change vs veh, C9orf123 / RFU, N4BP2L2 / Fold change vs veh, N4BP2L2 / RFU, ARFIP1 / Fold change vs veh, ARFIP1 / RFU, FAM179B / Fold change vs veh, FAM179B / RFU, BCL10 / Fold change vs veh, BCL10 / RFU, UHRF1BP1L / Fold change vs veh, UHRF1BP1L / RFU, BET1 / Fold change vs veh, BET1 / RFU, CNOT2 / Fold change vs veh, CNOT2 / RFU, ZNF268 / Fold change vs veh, ZNF268 / Fold change vs veh, ZNF507 / RFU, DGCR2 / Fold change vs veh, DGCR2 / RFU, WDSUB1 / Fold change vs veh, WDSUB1 / Fold change vs veh, HSP90B1 /// MIR3652 / RFU, ADSS / Fold change vs veh, ADSS / RFU, GK / Fold change vs veh, GK / RFU, ZNF148 / Fold change vs veh, ZNF148 / RFU, TAF9 / Fold change vs veh, TAF9 / RFU, SLC1A5 / Fold change vs veh, SLC1A5 / RFU, SLMO2 / Fold change vs veh, SLMO2 / RFU, ABCC4 / Fold change vs veh, ABCC4 / RFU, LOC101060439 /// RAP1B / Fold change vs veh, LOC101060439 /// RAP1B / RFU, RFX7 / Fold change vs veh, RFX7 / RFU, GTPBP10 / Fold change vs veh, GTPBP10 / RFU, CNEP1R1 / Fold change vs veh, CNEP1R1 / RFU, BIVM-ERCC5 /// ERCC5 / Fold change vs veh, BIVM-ERCC5 /// ERCC5 / RFU, ILF3 / Fold change vs veh, ILF3 / RFU 11762660_at / Fold change /veh 11762660_at / RFU VCAN (11757783_s_at) / Fold change /veh VCAN (11757783_s_at) / RFU DDX43 (11728927_at) / Fold change /veh DDX43 (11728927_at) / RFU KRT8 (11758188_x_at) / Fold change /veh KRT8 (11758188_x_at) / RFU NKD1 (11759106_at) / Fold change /veh NKD1 (11759106_at) / RFU SRD5A1 (11742802_a_at) / Fold change /veh SRD5A1 (11742802_a_at) / RFU TPSAB1 /// TPSB2 (11721975_s_at) / Fold change /veh TPSAB1 /// TPSB2 (11721975_s_at) / RFU GSTM3 (11746129_a_at) / Fold change /veh GSTM3 (11746129_a_at) / RFU IL23R (11737362_x_at) / Fold change /veh IL23R (11737362_x_at) / RFU TMEM51 (11727254_a_at) / Fold change /veh TMEM51 (11727254_a_at) / RFU PIWIL2 (11732686_x_at) / Fold change /veh PIWIL2 (11732686_x_at) / RFU ORM1 (11744905_x_at) / Fold change /veh ORM1 (11744905_x_at) / RFU CCDC152 (11743942_at) / Fold change /veh CCDC152 (11743942_at) / RFU ECM1 (11717891_a_at) / Fold change /veh ECM1 (11717891_a_at) / RFU IL23R (11748794_a_at) / Fold change /veh IL23R (11748794_a_at) / RFU TNFAIP8L3 (11732012_x_at) / Fold change /veh TNFAIP8L3 (11732012_x_at) / RFU MBOAT4 (11741988_at) / Fold change /veh MBOAT4 (11741988_at) / RFU 11764193_at / Fold change /veh 11764193_at / RFU TMEM53 (11763286_at) / Fold change /veh TMEM53 (11763286_at) / RFU MAGEB2 (11727129_at) / Fold change /veh MAGEB2 (11727129_at) / RFU TMEM200A (11744735_a_at) / Fold change /veh TMEM200A (11744735_a_at) / RFU CCDC152 (11751479_a_at) / Fold change /veh CCDC152 (11751479_a_at) / RFU FAM211A (11726209_a_at) / Fold change /veh FAM211A (11726209_a_at) / RFU RGS16 (11746705_a_at) / Fold change /veh RGS16 (11746705_a_at) / RFU VCAN (11755009_s_at) / Fold change /veh VCAN (11755009_s_at) / RFU RHOB (11743442_s_at) / Fold change /veh RHOB (11743442_s_at) / RFU RGS16 (11720943_a_at) / Fold change /veh RGS16 (11720943_a_at) / RFU RGS16 (11720944_at) / Fold change /veh RGS16 (11720944_at) / RFU, VPS4B / Fold change vs veh, VPS4B / RFU, CREB1 / Fold change vs veh, CREB1 / RFU, DNAJC13 / Fold change vs veh, DNAJC13 / RFU, GNAQ / Fold change vs veh, GNAQ / RFU, CDK5R1 / Fold change vs veh, CDK5R1 / RFU, ZRANB3 / Fold change vs veh, ZRANB3 / RFU, CUL4A / Fold change vs veh, CUL4A / RFU, CCNY / Fold change vs veh, CCNY / RFU, UFL1 / Fold change vs veh, UFL1 / RFU, COG3 / Fold change vs veh, COG3 / RFU, DIAPH2 / Fold change vs veh, DIAPH2 / RFU, SKA2 / Fold change vs veh, SKA2 / RFU, AFF3 / Fold change vs veh, AFF3 / RFU, LMF1 / Fold change vs veh, LMF1 / RFU, IPO11 / Fold change vs veh, IPO11 / RFU, DFFB / Fold change vs veh, DFFB / RFU, FOXP1 / Fold change vs veh, FOXP1 / RFU, CARD8 / Fold change vs veh, CARD8 / RFU, STRN3 / Fold change vs veh, STRN3 / RFU, ADK / Fold change vs veh, ADK / RFU, RASSF2 / Fold change vs veh, RASSF2 / RFU, WIPF1 / Fold change vs veh, WIPF1 / RFU, LARP1B / Fold change vs veh, LARP1B / RFU, RASA1 / Fold change vs veh, RASA1 / RFU, RB1 / Fold change vs veh, RB1 / RFU, PPFIA1 / Fold change vs veh, PPFIA1 / RFU, MAT2A / Fold change vs veh, MAT2A / RFU, CCT5 / Fold change vs veh, CCT5 / RFU, WDR92 / Fold change vs veh, WDR92 / RFU, CUX1 / Fold change vs veh, CUX1 / RFU, TTC7A / Fold change vs veh, TTC7A / RFU, TMEM135 / Fold change vs veh, TMEM135 / RFU, DEPTOR / Fold change vs veh, DEPTOR / RFU, CPM / Fold change vs veh, CPM / RFU, DNAJB6 / Fold change vs veh, DNAJB6 / RFU, CACNA2D3 / Fold change vs veh, CACNA2D3 / RFU, DTX4 / Fold change vs veh, DTX4 / RFU, TFCP2 / Fold change vs veh, TFCP2 / RFU, GMCL1 /// GMCL1P1 / Fold change vs veh, GMCL1 /// GMCL1P1 / RFU, AEBP2 / Fold change vs veh, AEBP2 / RFU, SNHG1 /// SNORD22 /// SNORD25 /// SNORD26 /// SNORD27 /// SNORD28 /// SNORD29 /// SNORD31 / Fold change vs veh, SNHG1 /// SNORD22 /// SNORD25 /// SNORD26 /// SNORD27 /// SNORD28 /// SNORD29 /// SNORD31 / Fold change (Aza/veh), C12orf56 (ProbeSet 11735607_a_at) / Fold change (ACY-1035/veh), C12orf56 (ProbeSet 11735607_a_at) / Fold change (Aza/veh), FGFR1OP (ProbeSet 11751329_s_at) / Fold change (ACY-1035/veh), FGFR1OP (ProbeSet 11751329_s_at) / Fold change (Aza/veh), VPS36 (ProbeSet 11739960_a_at) / Fold change (ACY-1035/veh), VPS36 (ProbeSet 11739960_a_at) / RFU SYPL1 (11715823_x_at) / Fold change /veh SYPL1 (11715823_x_at) / RFU IGFBP7 (11715501_s_at) / Fold change /veh IGFBP7 (11715501_s_at) / RFU REEP3 (11722064_at) / Fold change /veh REEP3 (11722064_at) / RFU IGLL1 (11728026_x_at) / Fold change /veh IGLL1 (11728026_x_at): dose or concentration left out as unconfirmed.

Regarding `Nc1ncn([C@@H]2O[C@H](CO)[C@@H](O)[C@H]2O)c(=O)n1` [azacitidine], the “RFU C5orf56 (11738089_at)” value stood at 11.14 RFU.
